# Patent US9248149B2, “Methods for treating a neoplastic disease in a subject using inorganic selenium-containing compounds” (THE BOARD OF TRUSTEES OF THE LELAND STANFORD JUNIOR …, priority 2003, dated 2016)
# Legend:
# [1] = test system: LAPC-4 prostate cancer cells; experiment: Apoptosis as sub-G1 fraction by FACS of PI-stained cells; format: cell-based, human; details: for percentage of sub-G1 cells (apoptosis): 48 hours
# Description: (§1) Cell Cultures and Treatments. LAPC-4 prostate cancer cells (provided by Dr. Charles Sawyers, UCLA) were cultured in phenol red free RPMI 1640 (Life Technologies, Rockville, Md.) supplemented with 10% fetal bovine serum (Gemini Bio-Products, Woodland, Calif.) at 37° C. in a humidified atmosphere with 5% CO2.
# Detection of Apoptosis. Flow cytometry analysis (FACS) analysis of propidium iodide (PI)-stained cells was used to quantify the percentage of apoptotic cells as the fraction of cells with a hypodiploid amount of DNA (Sub-G1). Cells were fixed and permeabilized with 100% ice-cold ethanol at 4° C. overnight. The cells were resuspended in 500 μl of buffer (phosphate buffered saline (PBS), 5 mM EDTA) and incubated with 200 μg/ml RNase A for 30 min at room temperature and then 50 μg/ml PI for 10 min at room temperature. The cell cycle distribution was analyzed using Facstar flow cytometry (Becton-Dickinson, San Jose, Calif.). Cleavage of Caspase-3 as a marker of caspase-mediated apoptosis was also detected by immunoblot analysis (see below).
# [2] = test system: LAPC-4 prostate cancer cells; experiment: MTS cell proliferation assay; format: cell-based, human; details: 48 hours
# Description: as §1
# Cell proliferation assay. Cells were seeded in 96-well plates (10,000 cells/well) and treated with selenite for 48 hours. Cell survival was assayed using the CellTiter 96 AQueous One Solution Cell Proliferation Assay (Promega, Madison, Wis.). The MTS tetrazolium solution was added directly to the wells, incubated at 37° C. for 3 hours, and then the absorbance was read at 490 nm with a 96 well plate reader (Vmax Kinetic Microplate Reader, Molecular Devices, Sunnyvale, Calif.).
# [3] = test system: LAPC-4 cells; experiment: GSH-reductase recycling assay, intracellular GSH and GSSG; format: cell-based, human; details: 10 μM selenite
# Description: Determination of Intracellular GSH and GSSG Content. The determination of intracellular GSH and GSSG content following exposure to selenite was performed using the GSH-reductase recycling assay (Vandeputte et al., Cell Biol Toxicol, 10: 415-421 (1994)). This assay measures the reaction of GSH with 5,5′-dithiobis(2-nitrobenzoic acid) (DTNB). Briefly, cells (floating and adherent) were rinsed in cold stock buffer (143 mM sodium phosphate, 6.3 mM EDTA, pH7.4), and lysed by repeated freeze thawing in 130 μl of 10 mM HCl. Following lysis a 10 μl sample was removed and used for protein determination. Proteins were precipitated on ice for 15 min with 30 μl of 6.5% sulfosalicyclic acid and centrifuged for 15 min at 2000×g and 4° C. The supernatants were collected and stored at −80° C. until assayed. The 96-well plate assay was prepared by mixing 20 μl of sample or known GSH standard, 20 μl of stock buffer, 200 μl of reaction buffer (1 mM 5,5′-dithiobis(2-nitrobenzoic acid (DTNB) and 0.34 mM nicotinamide adenine dinucleotide phosphate (NADPH) in stock buffer), and 40 μl of GSH reductase (8.5 U/ml). The reaction was recorded kinetically at 30-sec intervals for 6 min at a wavelength of 405 nm GSSG was measured following GSH derivatization with 2-vinylpyridine and triethanolamine. GSSG was measured as described above using known GSSG standards. The concentration of GSH and GSSG was expressed as nmol/mg of protein.
# [4] = test system: normal prostate cells (E-PZ-3); experiment: GSH-reductase recycling assay, GSH:GSSG ratio; format: cell-based, human; details: 25 μM selenite, 48 hours
# Text: (§2) Primary prostate epithelial cell strains from normal prostate (PZ) and prostate cancer (CA) tissue were provided by Dr. Donna Peehl (Stanford University) using well established methods she has previously described (Peehl, Human prostatic epithelial cells. In: Culture of Epithelial Cells, 2nd edition, Freshney, R. I. and Freshney, M. G. (eds.), Wiley-Liss, Inc., N.Y., 171-194 (2002)). Three matched pairs of normal and cancer cell strains were available for study (E-PZ/CA-1, E-PZ/CA-2, and E-PZ/CA-3). Normal cell strains were obtained from a region of the prostate peripheral zone not involved in cancer. E-CA-1, E-CA-2, and E-CA-3 cell strains were derived from prostate carcinomas. Cells were treated at 50-70% confluence.
# (§3) Determination of Intracellular GSH and GSSG Content. […] The 96-well plate assay was prepared by mixing 20 μl of sample or known GSH standard, 20 μl of stock buffer, 200 μl of reaction buffer (1 mM 5,5′-dithiobis(2-nitrobenzoic acid (DTNB) and 0.34 mM nicotinamide adenine dinucleotide phosphate (NADPH) in stock buffer), and 40 μl of GSH reductase (8.5 U/ml). The reaction was recorded kinetically at 30-sec intervals for 6 min at a wavelength of 405 nm GSSG was measured following GSH derivatization with 2-vinylpyridine and triethanolamine. GSSG was measured as described above using known GSSG standards. The concentration of GSH and GSSG was expressed as nmol/mg of protein.
# [5] = test system: prostate cancer cells (E-CA-3); experiment: GSH-reductase recycling assay, GSH:GSSG ratio; format: cell-based, human; details: 25 μM selenite, 48 hours
# Text: as §2, §3
# [6] = test system: DU 145 prostate cancer cells; experiment: GSH-reductase recycling assay, GSH:GSSG ratio; format: cell-based; details: 10 μM selenite, basal level 146.4±14.0
# Description: DU 145 prostate cancer cells (American Type Culture Collection, Rockville, Md.) were cultured in RPMI 1640 (+phenol red) supplemented with 10% fetal bovine serum. When the cells reached 50% confluence the media was replaced and selenite was added at the noted concentrations.
# as §3, with “Content. The determination of intracellular GSH and GSSG content following exposure to selenite was performed using the GSH-reductase recycling assay (Vandeputte et al., Cell Biol Toxicol, 10: 415-421 (1994)). This assay measures the reaction of GSH with 5,5′-dithiobis(2-nitrobenzoic acid) (DTNB).” for “Content.”
# [7] = test system: LAPC-4 cells; experiment: Clonogenic survival assay; format: cell-based, human
# Description: (§4) Clonogenic Survival Assays. In Examples 1-4 below, LAPC-4 cells were treated with or without selenite for 6 hours prior to receiving 2 Gy of ionizing radiation. In other Examples, LAPC-4 and DU 145 cells were treated with 10 μM selenite for 6 or 12 hours treatment with 2 or 5 Gy of γ-irradiation.
# (§5) Following irradiation cells were trypsinized, counted, and seeded in triplicate into 60 mm dishes. At least two dilutions of cells were used for each treatment group. Plated cells were allowed to grow for 14 or 17 days before being stained with 0.25% crystal violet in 75% ethanol. Resulting colonies with greater than 50 cells were scored. The surviving fraction was calculated as the plating efficiency of treated cells divided by the plating efficiency of untreated cells. SF2 is the survival fraction of exponentially growing cells that were irradiated at the clinically relevant dose of 2 Gy. The SF2 enhancement ratio (SF2 ER) is defined here as the SF2 without treatment divided by the SF2 for cells treated with selenite.
# [8] = test system: DU 145 cells; experiment: Clonogenic survival assay; format: cell-based; details: for SF2: normalized for killing from selenite alone, radiation alone 0.554; for surviving fraction, selenite alone: assessed at 17 days
# Description: as §4, §5
# [9] = test system: LAPC-4 tumors; experiment: Selenite and radiation combination therapy in mice with LAPC-4 tumors; format: in vivo
smiles,measurement,setting,value
"CCCCS(=N)(=O)CCC(N)C(=O)O (centres unmarked) [BSO, buthionine sulfoximine, reference compound]",induction of apoptosis,[1]; BSO 500 μM for 72 hrs,did not induce significant apoptosis
"O=[Se](O)O [selenite, Sodium selenite]",Cell proliferation,[2]; 10 μM selenite,53.3 % of control
same,Cell proliferation,[2]; 25 μM selenite,33.4 % of control
same,percentage of sub-G1 cells (apoptosis),[1]; 10 μM selenite,14.5%
same,percentage of sub-G1 cells (apoptosis),[1]; 25 μM selenite,26.1%
same,decrease of GSH:GSSG ratio,[3]; 6 hours,88.3%
same,GSH:GSSG ratio,"[3]; 6 hours, untreated 129.4±13.6",15.1±2.3
same,total GSH level,"[3]; 48 hours, basal level 52.1±5.6",11.8 ± 2.1 nmol/mg
same,decrease of GSH:GSSG ratio,[4],41.1%
same,decrease of GSH:GSSG ratio,[5],65.9%
same,GSH:GSSG ratio,[6]; 6 hours,57.5±13.8
same,GSH:GSSG ratio,[6]; 12 hours,5.7±1.8
same,SF2,"[7]; 10 μM selenite 6 hr pre 2 Gy γ-irradiation, normalized for killing from selenite alone, radiation alone 0.244",0.056
same,SF2 ER,"[7]; 10 μM selenite 6 hr pre radiation, SF2 without treatment divided by SF2 with selenite",4.36
same,"surviving fraction, selenite alone","[7]; 10 μM selenite for 6 hours, no radiation",0.431±0.021
same,SF2,[8]; 10 μM selenite 6 hr pre 2 Gy γ-irradiation,0.343
same,SF2 ER,[8]; 10 μM selenite 6 hr pre radiation,1.62
same,SF2,[8]; 10 μM selenite 12 hr pre 2 Gy γ-irradiation,0.199
same,SF2 ER,[8]; 10 μM selenite 12 hr pre radiation,2.78
same,"surviving fraction, selenite alone",[8]; 10 μM selenite for 6 hours,0.941
same,"surviving fraction, selenite alone",[8]; 10 μM selenite for 12 hours,0.409
same,tolerability,[9]; selenite treated mice,very well tolerated
same,weight loss,[9]; selenite treated mice compared with local tumor irradiation alone,no significant weight loss
